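Following 48 hours of exposure in 96-well plates, responses at five concentrations were used to interpolate endpoints linearly. GI50 = concentration required for 50% inhibition of growth. TGI marks complete inhibition of growth.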
How the values were obtained:
Test in all cases: DTP human tumour cell line panel, 48 h
SF-295 CNS = test system: SF-295 CNS
OVCAR-3 ovarian = test system: OVCAR-3 ovarian
HL-60(TB) leukemia = test system: HL-60(TB) leukemia
MDA-MB-231 breast = test system: MDA-MB-231 breast
HS 578T breast = test system: HS 578T breast
A549 NSCLC = test system: A549 NSCLC
RXF 393 renal = test system: RXF 393 renal
SK-MEL-5 melanoma = test system: SK-MEL-5 melanoma
HT29 colon = test system: HT29 colon
HOP-62 NSCLC = test system: HOP-62 NSCLC
SK-MEL-28 melanoma = test system: SK-MEL-28 melanoma
EKVX NSCLC = test system: EKVX NSCLC
CCRF-CEM leukemia = test system: CCRF-CEM leukemia
SF-268 CNS = test system: SF-268 CNS
NCI-H522 lung = test system: NCI-H522 lung
HCT-15 colon = test system: HCT-15 colon
OVCAR-8 ovarian = test system: OVCAR-8 ovarian
K-562 leukemia = test system: K-562 leukemia
BT-549 breast = test system: BT-549 breast
MCF7 breast = test system: MCF7 breast
SNB-19 CNS = test system: SNB-19 CNS
T-47D breast = test system: T-47D breast
SK-OV-3 ovarian = test system: SK-OV-3 ovarian
NCI-H23 lung = test system: NCI-H23 lung
LOX IMVI melanoma = test system: LOX IMVI melanoma
CAKI-1 renal = test system: CAKI-1 renal
ACHN renal = test system: ACHN renal
COLO 205 colon = test system: COLO 205 colon
786-0 renal = test system: 786-0 renal
UACC-257 melanoma = test system: UACC-257 melanoma
OVCAR-5 ovarian = test system: OVCAR-5 ovarian
SN12C renal = test system: SN12C renal
DU-145 prostate = test system: DU-145 prostate
UO-31 renal = test system: UO-31 renal
HOP-92 NSCLC = test system: HOP-92 NSCLC
SF-539 CNS = test system: SF-539 CNS
NCI-H226 lung = test system: NCI-H226 lung
MALME-3M melanoma = test system: MALME-3M melanoma
KM12 colon = test system: KM12 colon
A498 renal = test system: A498 renal
NCI-H460 lung = test system: NCI-H460 lung
SW-620 colon = test system: SW-620 colon
MDA-MB-435 = test system: MDA-MB-435
SR leukemia = test system: SR leukemia
M14 melanoma = test system: M14 melanoma
HCC-2998 colon = test system: HCC-2998 colon
MDA-MB-468 breast = test system: MDA-MB-468 breast
RPMI-8226 leukemia = test system: RPMI-8226 leukemia
SK-MEL-2 melanoma = test system: SK-MEL-2 melanoma
UACC-62 melanoma = test system: UACC-62 melanoma
MOLT-4 leukemia = test system: MOLT-4 leukemia
PC-3 prostate = test system: PC-3 prostate
SNB-75 CNS = test system: SNB-75 CNS
IGROV1 ovarian = test system: IGROV1 ovarian
TK-10 renal = test system: TK-10 renal
U251 CNS = test system: U251 CNS
OVCAR-4 ovarian = test system: OVCAR-4 ovarian

Question: Which results are given for `O=C1Nc2cc(Cl)ccc2/C1=C/c1ccc(OCc2ccc(Br)cc2F)cc1`?
Answer: GI50 (SF-295 CNS): 2.07 µM; TGI (SF-295 CNS): 4.36 µM; GI50 (OVCAR-3 ovarian): 2.49 µM; TGI (OVCAR-3 ovarian): 5.08 µM; GI50 (HL-60(TB) leukemia): 17.7 µM; TGI (HL-60(TB) leukemia): 53.6 µM; GI50 (MDA-MB-231 breast): 2.33 µM; TGI (MDA-MB-231 breast): 5.92 µM; GI50 (HS 578T breast): 2.05 µM; TGI (HS 578T breast): 6.6 µM; GI50 (A549 NSCLC): 2.08 µM; TGI (A549 NSCLC): 4.35 µM; GI50 (RXF 393 renal): 2.73 µM; TGI (RXF 393 renal): 9.28 µM; GI50 (SK-MEL-5 melanoma): 3.47 µM; TGI (SK-MEL-5 melanoma): 12.3 µM; GI50 (HT29 colon): 4.69 µM; TGI (HT29 colon): 19.5 µM; GI50 (HOP-62 NSCLC): 1.9 µM; TGI (HOP-62 NSCLC): 4.21 µM; GI50 (SK-MEL-28 melanoma): 2.18 µM; TGI (SK-MEL-28 melanoma): 4.92 µM; GI50 (EKVX NSCLC): 3.69 µM; TGI (EKVX NSCLC): 17.1 µM; GI50 (CCRF-CEM leukemia): 3.86 µM; TGI (CCRF-CEM leukemia): 14.6 µM; GI50 (SF-268 CNS): 2.67 µM; TGI (SF-268 CNS): 6.35 µM; GI50 (NCI-H522 lung): 1.99 µM; TGI (NCI-H522 lung): 4.89 µM; GI50 (HCT-15 colon): 3.4 µM; TGI (HCT-15 colon): 13 µM; GI50 (OVCAR-8 ovarian): 3.31 µM; TGI (OVCAR-8 ovarian): 10.4 µM; GI50 (K-562 leukemia): 4.03 µM; TGI (K-562 leukemia): 17 µM; GI50 (BT-549 breast): 1.92 µM; TGI (BT-549 breast): 4.26 µM; GI50 (MCF7 breast): 2.11 µM; TGI (MCF7 breast): 14.2 µM; GI50 (SNB-19 CNS): 2.3 µM; TGI (SNB-19 CNS): 5.72 µM; GI50 (T-47D breast): 4.19 µM; TGI (T-47D breast): 18.3 µM; GI50 (SK-OV-3 ovarian): 3.81 µM; TGI (SK-OV-3 ovarian): 13.5 µM; GI50 (NCI-H23 lung): 1.79 µM; TGI (NCI-H23 lung): 4.08 µM; GI50 (LOX IMVI melanoma): 1.73 µM; TGI (LOX IMVI melanoma): 3.61 µM; GI50 (CAKI-1 renal): 1.7 µM; TGI (CAKI-1 renal): 3.46 µM; GI50 (ACHN renal): 1.92 µM; TGI (ACHN renal): 3.83 µM; GI50 (COLO 205 colon): 4.03 µM; TGI (COLO 205 colon): 17 µM; GI50 (786-0 renal): 1.9 µM; TGI (786-0 renal): 3.5 µM; GI50 (UACC-257 melanoma): 9.42 µM; TGI (UACC-257 melanoma): 26.3 µM; GI50 (OVCAR-5 ovarian): 8.24 µM; TGI (OVCAR-5 ovarian): 34.3 µM; GI50 (SN12C renal): 5.31 µM; TGI (SN12C renal): 19.6 µM; GI50 (DU-145 prostate): 3.39 µM; TGI (DU-145 prostate): 10.1 µM; GI50 (UO-31 renal): 1.55 µM; TGI (UO-31 renal): 4.65 µM; GI50 (HOP-92 NSCLC): 2.28 µM; TGI (HOP-92 NSCLC): 6.17 µM; GI50 (SF-539 CNS): 1.92 µM; TGI (SF-539 CNS): 3.59 µM; GI50 (NCI-H226 lung): 2.07 µM; TGI (NCI-H226 lung): 5.53 µM; GI50 (MALME-3M melanoma): 1.82 µM; TGI (MALME-3M melanoma): 3.83 µM; GI50 (KM12 colon): 3.54 µM; TGI (KM12 colon): 11.5 µM; GI50 (A498 renal): 2.23 µM; TGI (A498 renal): 4.59 µM; GI50 (NCI-H460 lung): 2.02 µM; TGI (NCI-H460 lung): 3.74 µM; GI50 (SW-620 colon): 2.02 µM; TGI (SW-620 colon): 4.18 µM; GI50 (MDA-MB-435): 2.87 µM; TGI (MDA-MB-435): 8.54 µM; GI50 (SR leukemia): 2.07 µM; TGI (SR leukemia): 4.45 µM; GI50 (M14 melanoma): 2.91 µM; TGI (M14 melanoma): 9.02 µM; GI50 (HCC-2998 colon): 15.4 µM; TGI (HCC-2998 colon): 37.7 µM; GI50 (MDA-MB-468 breast): 2.24 µM; TGI (MDA-MB-468 breast): 4.65 µM; GI50 (RPMI-8226 leukemia): 4.41 µM; TGI (RPMI-8226 leukemia): 18.1 µM; GI50 (SK-MEL-2 melanoma): 7.22 µM; TGI (SK-MEL-2 melanoma): 21.7 µM; GI50 (UACC-62 melanoma): 1.82 µM; TGI (UACC-62 melanoma): 3.8 µM; GI50 (MOLT-4 leukemia): 3.98 µM; TGI (MOLT-4 leukemia): 14.4 µM; GI50 (PC-3 prostate): 1.91 µM; TGI (PC-3 prostate): 4.46 µM; GI50 (SNB-75 CNS): 2.19 µM; TGI (SNB-75 CNS): 7 µM; GI50 (IGROV1 ovarian): 2.43 µM; TGI (IGROV1 ovarian): 6.3 µM; GI50 (TK-10 renal): 2.73 µM; TGI (TK-10 renal): 7.15 µM; GI50 (U251 CNS): 1.92 µM; TGI (U251 CNS): 3.62 µM; GI50 (OVCAR-4 ovarian): 1.9 µM; TGI (OVCAR-4 ovarian): 3.98 µM

— PubChem BioAssay (NCI)
